Results taken from patent US6676946B2 (priority 1997, dated 2004).
Entries after “also recorded” stand apart in the source; their conditions may differ.

Legend:
[1] = test system: MLS 128 (IgG) anti-Tn monoclonal antibody; format: binding, mouse
MLS128 mAb = format: binding, mouse
[2] = test system: Tn3G6K(Biot)G glycopeptide; parameters: species or system BALB/c mice; settings: mouse, in vivo
STTG6K(Biot)G peptide = test system: STTG6K(Biot)G peptide; parameters: species or system BALB/c mice; settings: mouse, in vivo
[3] = test system: human Jurkat tumor cell line; settings: in vivo
[4] = test system: T cell hybridoma 45G10 specific for PV; format: cell-based
[5] = test system: T cell hybridomas 45G10 (specific for 103-115 poliovirus peptide); format: cell-based
lymph node (LN) cells = test system: lymph node (LN) cells; parameters: species or system BALB/c mice; settings: mouse, in vivo, sc
Tn antigen (BT-TT1) = test system: Tn antigen (BT-TT1); parameters: species or system BALB/c mice; settings: mouse, in vivo

Row | Substance | recognition of the Tn motif by the MLS 128 mAb, direct ELISA [1] | inhibition of MLS128 binding to Tn3G6K(Biot)G (MLS128 mAb) | anti-Tn IgG antibodies [2] | sera binding to unglycosylated STTG6K(Biot)G peptide (STTG6K(Biot)G peptide) | stimulation of the 45G10 T cell hybrid [4] | further results
1 | (S*T*T*G)2KLFAVWKITYKDT [Tn6-PV] | efficiently recognized | significant enhancement of the antigenicity | induced anti-Tn IgG antibodies | No sera binding was observed | stimulate | anti-Tn IgM antibodies [2]: detected; binding of sera to Jurkat cells [3]: bound this human cell line; recognition of Jurkat cells / antibody production relative to Tn3-PV [3]: better; also recorded: significant benefit; increase of antigenicity of the T cell epitope compared to unglycosylated PV peptide [4]: ~100 fold
2 | KLFAVWKITYKDT [PV, reference compound] | are not | – | no Tn specific antibodies were detected | No sera binding was observed | stimulate | recognition by PV-specific T-cell hybridoma [5]: recognize; proliferative T response specific for the T epitope (lymph node (LN) cells): induce in vivo a proliferative T response; induction of anti-Tn antibodies (Tn antigen (BT-TT1)): not
3 | S*T*T*QYIKANSKIGITEL [Tn3-TT] | efficiently recognized | only slightly affected | – | – | – | –
4 | STTGGGGGGKG [STTG6KG, reference compound] | – | – | – | – | – | competition with a-OSM for MLS 128 binding (MLS128 mAb): does not
5 | αGalNac-Ser [B] | – | – | – | – | – | stimulation of IL-2 production by the T hybridoma [5]: do not stimulate
